The source of these data is article PMC5788896 (Frontiers in Pharmacology, 2018).

For data set [1] the following is noted: intravenous administration of 1 mg/kg; ref Gavini et al., 2011; cited from earlier work.
Details of data set [2]: method as in Turina et al., 2006. The note with it: ref Turina et al., 2006; cited from earlier work.
In data set [3] the test system is NCM460 cell monolayers. In words: Permeation studies across NCM460 cell monolayers (Millicell inserts, HPLC). The settings on record: A → B higher than B → A, P < 0.001. The data set is classed as in vitro ADME, human. Here is the method: Differentiation to NCM460 cell monolayers was performed essentially according to the method reported by [Ferretti et al. (2015)]. Briefly, after two passages, confluent NCM460 cells were seeded at a density of 10^5 cells/mL in a 1:1 ratio of fresh and spent culture medium in 12-well Millicell inserts (Millipore, Milan, Italy) consisting of 1.0 μm pore size polyethylene terephthalate (PET) filter membranes, whose surface was 1.12 cm^2. Filters were presoaked for 24 h with fresh culture medium, and then the upper compartment (apical, A) received 400 μL of the diluted cells, whereas the lower compartment (basolateral, B) received 2 mL of the medium in the absence of cells. […] The integrity of the cell monolayers was monitored by measuring the transepithelial electrical resistance (TEER) by means of a voltmeter (Millicell-ERS; Millipore, Milan, Italy). The measured resistance value was multiplied by the area of the filter to obtain an absolute value of TEER, expressed as Ω⋅cm^2. […] The homogeneity and integrity of the cell monolayer were also monitored by phase contrast microscopy. […]
Permeation experiments were performed in triplicate in both the apical-to-basolateral (A → B) and basolateral-to-apical (B → A) directions. […] TEER values were monitored before and after each experiment. […]
The permeabilities were determined for the filters alone (Pf), and for the filters covered with cells (Pt). […]

Data set [4] is described as follows: Stability of geraniol in phosphate buffered saline. In kind it is physicochemical. The note with it: 37°C, for at least 8 h, data not shown. An excerpt: During the experiment drug solutions were shaken continuously and gently in an oscillating water-bath.
Data set [5] in a line: Intravenous infusion pharmacokinetics, whole blood by HPLC. The data set is classed as in vivo, Sprague-Dawley rats. As to the method:
The samples were extracted and analyzed as described above, with the only difference that the samples withdrawn within 20 min after infusion were diluted 1:10 using the H2O:CH3CN mixture (50:50 v/v) before analysis. Four rats ware employed for intravenous infusions of geraniol. […] The calculations were performed using the computer program GraphPad Prism. […] At the end of the oral administration and at fixed time points, blood samples (100 μL) were collected and CSF samples (50 μL) were withdrawn using the cysternal puncture method described by [van den Berg et al. (2002)], which requires a single needle stick and allows the collection of serial (40–50 μL) CSF samples that are virtually blood-free ([Dalpiaz et al., 2014]). A total volume of approximately 150 μL of CSF was collected during the experimental session. […] In particular, blood withdrawals for all programmed time points were repeated four times with a corresponding number of rats; CSF withdrawals for all programmed time points were repeated at least four times with a number of rats allowing no more than three CSF withdrawals from each of them. […] All the calculations were performed using the computer program Graph Pad Prism.

The test system of data set [6] is Glutathione S-transferase (GST). In words: Glutathione S-transferase activity in liver after 28-day treatment. In kind it is in vivo, C57BL/6 mice. The note with it: mice liver. As to the method: (§1) At the end of treatment, mice were killed.
The incubation mixture for measuring overall GST activity contained 1 mM glutathione + 1 mM 1-chloro-2,4-dinitrobenzene (CDNB) in methanol + 0.025 mL of sample in a final volume of 2.5 mL 0.1 M phosphate Na^+/K^+ buffer (pH 6.5). The product of the reaction of the thiol group of glutathione with the electrophilic group of CDNB was read at 340 nm (ε = 9.6 mM^-1 cm^-1) ([Vivarelli et al., 2016a]).

The test system of data set [7] is UDP glucuronosyl-transferase (UDPGT). In words: UDP-glucuronosyl transferase activity in liver after 28-day treatment. The note with it: mice liver. In kind it is in vivo, C57BL/6 mice. As to the method: At the end of treatment, mice were killed. […] Experiments were performed in the presence or absence of Triton X-100 (0.2%) as a detergent, in order to improve the assay sensitivity ([Canistro et al., 2008]).

The test system of data set [8] is Catalase (CAT). In words: Catalase activity in liver after 28-day treatment. The data set is classed as in vivo, C57BL/6 mice. The settings on record: mice liver. As to the method:
At the end of treatment, mice were killed. […] Catalase (CAT) activity. The reaction was started in a quartz cuvette containing 50 mM potassium phosphate buffer and cytosol sample by adding 30 mM H2O2.

The subject of data set [9] is NAD(P)H: quinone reductase (NQO1). In words: NAD(P)H:quinone reductase activity in liver after 28-day treatment. The note with it: mice liver, geraniol 120 mg/kg by gavage for 28 days. The data set is classed as in vivo, C57BL/6 mice. An excerpt:
At the end of treatment, mice were killed. […] NAD(P)H:quinone reductase (NQO1) activity.

In data set [10] the test system is Superoxide dismutase (SOD). Briefly: Superoxide dismutase activity in liver after 28-day treatment. In kind it is in vivo, C57BL/6 mice. The settings on record: mice liver. As to the method: At the end of treatment, mice were killed. […] Superoxide dismutase activity (SOD): Superoxide dismutase activity was determined according to Misra and Fridovich’s assay ([Misra and Fridovich, 1972]). Briefly, the activity was assayed spectophotometrically at […] by monitoring the generation of adenochrome, one of the main products of epinephrine autoxidation at pH 10.2. The dejection of autoxidation was used to calculate SOD activity using the extinction coefficient of 4.02 per mM × cm, and expressed as mol of epinephrine oxidized/min per mg protein, derived by subtracting each test curve from the epinephrine autoxidation standard curve ([Bonamassa et al., 2016]).

The test system of data set [11] is Oxidized glutathione reductase (GSSG-red). Briefly: Oxidized glutathione reductase activity in liver after 28-day treatment. The settings on record: mice liver. The data set is classed as in vivo, C57BL/6 mice. As to the method:
At the end of treatment, mice were killed. […] Oxidized glutathione reductase activity (GSSG-red). […] The generation of NADP^+ from NADPH during the reduction of GSSG was recorded at 340 nm for 5 min at 37°C. GSSG-red activity was calculated using the extinction coefficient of 6.22 per mM x cm, and expressed as mol of NADPH consumed/min per mg protein ([Bonamassa et al., 2016]).

A short description of data set [12]: Hematochemical analysis and lipid serum profile after 28-day treatment. In kind it is in vivo, C57BL/6 mice. Here is the method:
as §1
For each animal, blood samples were collected in both heparinized and non-heparinized tubes. Plasma from heparinized samples was obtained after tabletop centrifugation at 2,000 rpm, while blood in non-heparinized tubes was centrifuged at 1,500 rpm for 10 min after complete coagulation, to obtain serum. Biochemical and hematological analyses were assessed by the Department of Veterinary Medical Science, University of Bologna.

On the set-up of data set [13]: method as in Turina et al., 2006. The settings on record: ref Turina et al., 2006; cited from earlier work. The source holds these as a separate data set.
Data set [14] concerns NCM460 cell monolayers. The settings on record: P-gp efflux transporter substrate; ref Marchetti et al., 2016; cited from earlier work.
[15] abbreviates: 120 mg/kg 28 days, versus controls.
Setting [16] is: geraniol 120 mg/kg by gavage for 28 days.
Where [17] appears, read: mice blood, geraniol 120 mg/kg by gavage for 28 days.
The mark [18] stands for this setting: mice serum, geraniol 120 mg/kg by gavage for 28 days.

In the case of `CCCC(=O)O[C@H]1[C@H](C)O[C@@H](O[C@H]2[C@H](N(C)C)[C@@H](O)[C@H](O[C@H]3[C@@H](CC=O)C[C@@H](C)[C@@H](O)/C=C/C=C/C[C@@H](C)OC(=O)C[C@@H](O)[C@@H]3OC)O[C@@H]2C)C[C@@]1(C)OC(=O)CC` [rokitamycin], the “concentration values in whole blood” value in data set [1] is “up to 7 μg/mL”.
In the case of `CC12CCC(CC1=O)C2(C)C` (stereo not shown) [camphor], the “membrane/water partition coefficient (Pm/w)” value in data set [2] is 3.99.
As usually defined, the half-life is how long it takes for the measured level to halve. Take `CC(C)=CCC/C(C)=C/CO` [geraniol, 3,7-dimethylocta-trans-2,6-dien-1-ol]: the “permeation rate apical to basolateral versus opposite direction” value in [3] is recorded as “roughly sixfold”. For the same compound, in data set [4], the “stability in PBS” value is “highly stable”. In data set [5] (iv infusion 12.5 mg (50 mg/kg), end of infusion), the “drug concentration in the rat bloodstream after intravenous infusion” value is 298 ± 19 µg/mL. The AUC in data set [5] (male, Sprague-Dawley, rat, iv 50 mg/kg, blood, within 3 h, read-out: AUC, intravenous administration (converted)) was 126 µg·h/mL. Moreover, the half-life in data set [5] (male, Sprague-Dawley, rat, iv infusion 12.5 mg (50 mg/kg), apparent first order kinetics, read-out: half-life in the bloodstream) came to 12.5 ± 1.5 min. The “effect on Phase II enzymes (GST)” value in data set [6] (setting [15]) was “not affected”. For the same compound, in data set [6] (setting [16]), the “Glutathione S-transferase (GST), Mean” value was determined as 2.60 µmol/mg/min. For the same compound, the “effect on Phase II enzymes (UDPGT)” value in data set [7] (setting [15]) is listed as “not affected”. For the same compound, the “UDP glucuronosyl-transferase (UDPGT), Mean” value in data set [7] (setting [16]) came to 3.89 nmol/mg/min. Further, in data set [8] (120 mg/kg 28 days, P < 0.01), the “catalase (CAT) induction with respect to controls” value was “up to 29%”. For the same compound, the “Catalase (CAT), Mean” value in data set [8] (setting [16]) turned out to be 2.55 µmol/mg/min. Besides, the “NAD(P)H: quinone reductase (NQO1), Mean” value in [9] is 12.43 nmol/mg/min. The “effect on Superoxide dismutase (SOD) activity” value in [10] (setting [15]) was “not affected”. Further, the “Superoxide dismutase (SOD), Mean” value in data set [10] (setting [16]) stood at 13.65 nmol/mg/min. Besides, the “oxidized glutathione reductase (GSSG-red) induction with respect to controls” value in [11] (120 mg/kg 28 days, P < 0.01) was “up to 56%”. In addition, the “Oxidized glutathione reductase (GSSG-red), Mean” value in data set [11] (setting [16]) was 118.31 µmol/mg/min. In data set [12] (setting [17]), this compound showed an ALT of 34 ± 5 U/l and an AST of 149 ± 24 U/l. In data set [12] (setting [18]), this compound returned a Cholesterol of 94 ± 7 mg/dL and an HDL cholesterol of 66 ± 4 mg/dL. Further, the liver toxicity result in data set [12] (mice, 120 mg/kg of geraniol for 4 weeks) was “no signs of liver toxicity”. Also, the n-octanol/water partition coefficient in data set [13] is 2.65. Moreover, in data set [2], the “membrane/water partition coefficient (Pm/w)” value was 4.38.
Take `CC1CCC(C(C)C)C(O)C1` (stereo not shown) [menthol]: the “membrane/water partition coefficient (Pm/w)” value in data set [2] is 2.44.
In the case of `CCN(CC)C(=O)Nc1ccc(OCC(O)CNC(C)(C)C)c(C(C)=O)c1` (stereo not shown) [celiprolol], the “direction of transport across NCM460 monolayers” value in [14] was “rate from basolateral to apical compartments being significantly higher than its rate in the opposite direction”.
`CC12CCC(CC1)C(C)(C)O2` [cineole]: the “membrane/water partition coefficient (Pm/w)” value in data set [2] is on record as 3.37.
